Results reported in PubChem BioAssay (NCI).
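1) Cells in 96-well plates. 2) Compound, 48 h, 5 concentrations. 3) Linear interpolation between surrounding doses. 4) Unreached endpoint = highest concentration. At the TGI there is no net growth.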

How the values were obtained:
Assay in all cases: DTP human tumour cell line panel, 48 h
[1] = tested on: T-47D breast
[2] = tested on: HCT-116 colon
[3] = tested on: OVCAR-8 ovarian
[4] = tested on: DU-145 prostate
[5] = tested on: NCI/ADR-RES ovarian
[6] = tested on: LOX IMVI melanoma
[7] = tested on: MOLT-4 leukemia
[8] = tested on: SR leukemia
[9] = tested on: PC-3 prostate
[10] = tested on: IGROV1 ovarian
[11] = tested on: SW-620 colon
[12] = tested on: HL-60(TB) leukemia
[13] = tested on: OVCAR-5 ovarian
[14] = tested on: K-562 leukemia
[15] = tested on: CAKI-1 renal
[16] = tested on: A549 NSCLC
[17] = tested on: SNB-75 CNS
[18] = tested on: SK-OV-3 ovarian
[19] = tested on: NCI-H460 lung
[20] = tested on: SK-MEL-5 melanoma
[21] = tested on: U251 CNS
[22] = tested on: NCI-H522 lung
[23] = tested on: HT29 colon
[24] = tested on: NCI-H23 lung
[25] = tested on: KM12 colon
[26] = tested on: NCI-H226 lung
[27] = tested on: UACC-62 melanoma
[28] = tested on: HCT-15 colon
[29] = tested on: MALME-3M melanoma
[30] = tested on: TK-10 renal
[31] = tested on: MDA-MB-435
[32] = tested on: M14 melanoma
[33] = tested on: HCC-2998 colon
[34] = tested on: MDA-MB-231 breast
[35] = tested on: CCRF-CEM leukemia
[36] = tested on: HS 578T breast
[37] = tested on: SF-539 CNS
[38] = tested on: SNB-19 CNS
[39] = tested on: SK-MEL-2 melanoma
[40] = tested on: UACC-257 melanoma
[41] = tested on: BT-549 breast
[42] = tested on: SF-268 CNS
[43] = tested on: 786-0 renal
[44] = tested on: RXF 393 renal
[45] = tested on: MDA-N
[46] = tested on: COLO 205 colon
[47] = tested on: EKVX NSCLC
[48] = tested on: SK-MEL-28 melanoma
[49] = tested on: A498 renal
[50] = tested on: RPMI-8226 leukemia
[51] = tested on: OVCAR-3 ovarian
[52] = tested on: SN12C renal
[53] = tested on: OVCAR-4 ovarian
[54] = tested on: UO-31 renal

## CSC1=C(C#N)C(=S)N=C(N)C1C(=O)Nc1ccc(C)cc1 (centres undefined)
[1]
  TGI: > 100 µM
[2]
  TGI: > 100 µM
[3]
  TGI: > 100 µM
[4]
  TGI: > 100 µM
[5]
  TGI: > 100 µM
[6]
  TGI: > 100 µM
[7]
  TGI: > 100 µM
[8]
  TGI: > 100 µM
[9]
  TGI: > 100 µM
[10]
  TGI: > 100 µM
[11]
  TGI: > 100 µM
[12]
  TGI: > 100 µM
[13]
  TGI: > 100 µM
[14]
  TGI: > 100 µM
[15]
  TGI: > 100 µM
[16]
  TGI: > 100 µM
[17]
  TGI: > 100 µM
[18]
  TGI: > 100 µM
[19]
  TGI: > 100 µM
[20]
  TGI: > 100 µM
[21]
  TGI: > 100 µM
[22]
  TGI: 94.8 µM
[23]
  TGI: > 100 µM
[24]
  TGI: > 100 µM
[25]
  TGI: > 100 µM
[26]
  TGI: > 100 µM
[27]
  TGI: > 100 µM
[28]
  TGI: > 100 µM
[29]
  TGI: > 100 µM
[30]
  TGI: > 100 µM
[31]
  TGI: > 100 µM
[32]
  TGI: > 100 µM
[33]
  TGI: > 100 µM
[34]
  TGI: > 100 µM
[35]
  TGI: > 100 µM
[36]
  TGI: > 100 µM
[37]
  TGI: > 100 µM
[38]
  TGI: > 100 µM
[39]
  TGI: > 100 µM
[40]
  TGI: > 100 µM
[41]
  TGI: > 100 µM
[42]
  TGI: > 100 µM
[43]
  TGI: > 100 µM
[44]
  TGI: > 100 µM
[45]
  TGI: > 100 µM
[46]
  TGI: > 100 µM
[47]
  TGI: > 100 µM
[48]
  TGI: > 100 µM
[49]
  TGI: > 100 µM
[50]
  TGI: > 100 µM
[51]
  TGI: > 100 µM
[52]
  TGI: > 100 µM
[53]
  TGI: > 100 µM
[54]
  TGI: > 100 µM
